Results reported in patent publication US10239925B2, “Peptides and combination of peptides for use in immunotherapy against ovarian cancer and other cancers” (IMMATICS BIOTECHNOLOGIES GMBH, priority 2015, dated 2019).

Assays:
[1] = target: HLA-A*02:01 (Homo sapiens, UniProt P04439, D140Y/D185E/D98H/E176V/E277Q/G131W/G231S/I119V/I121R/I166T/I218V/L300P/L318F/N151K/N90K/P208A/P217A/Q86G/Q94H/R138H/R169H/T345S); assay: MHC binding assay (UV-ligand exchange, anti-β2m ELISA, peptide exchange yield); settings: binding to HLA-A*02:01
How it was run: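 Yield of stabilized complexes quantified via the β2m light chain in an ELISA (streptavidin capture, 100-fold diluted monomers, HRP anti-β2m 2 ug/ml at 37 °C, TMB, A450). The complexes come from UV-triggered replacement of a photocleavable ligand by the candidate peptide.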

[2] = system: CD8+ T cells; assay: In vitro immunogenicity: priming of CD8+ T cells with aAPCs loaded with peptide/MHC and anti-CD28, multimer readout; assay type: cell-based, human; settings: for Wells positive [%]: HLA-A*02 restricted peptides, percentage of positive wells (among evaluable); for donors: percentage of positive donors; for wells: percentage of positive wells
Method: In an aspect, the peptides are pre-screened for immunogenicity before being included in the warehouse. By way of example, and not limitation, the immunogenicity of the peptides included in the warehouse is determined by a method comprising in vitro T-cell priming through repeated stimulations of CD8+ T cells from healthy donors with artificial antigen presenting cells loaded with peptide/MHC complexes and anti-CD28 antibody.
FIGS. 3A to 3F show exemplary immunogenicity data: flow cytometry results after peptide-specific multimer staining. CD8+ T cells were primed using artificial APCs coated with anti-CD28 mAb and HLA-A*02 in complex with SeqID No 662 (FIG. 3A, left panel), SeqID No 663 (FIG. 3B, left panel), SeqID No 11 peptide (FIG. 3C, left panel), SeqID No 198 peptide (FIG. 3D, left panel), SeqID No 587 peptide (FIG. 3E, left panel) and SeqID No 427 peptide (FIG. 3F, left panel), respectively. After three cycles of stimulation, the detection of peptide-reactive cells was performed by 2D multimer staining with A*02/SeqID No 662 (FIG. 3A), A*02/SeqID No 663 (FIG. 3B), A*02/SeqID No 11 (FIG. 3C), A*02/SeqID No 198 (FIG. 3D), A*02/SeqID No 587 (FIG. 3E) or A*02/SeqID No 427 (FIG. 3F). Right panels (FIGS. 3A, 3B, 3C, 3D, 3E, and 3F) show control staining of cells stimulated with irrelevant A*02/peptide complexes. Viable singlet cells were gated for CD8+ lymphocytes. Boolean gates helped excluding false-positive events detected with multimers specific for different peptides. Frequencies of specific multimer+ cells among CD8+ lymphocytes are indicated.
In Vitro Immunogenicity for MHC Class I Presented Peptides
In order to obtain information regarding the immunogenicity of the TUMAPs of the present invention, the inventors performed investigations using an in vitro T-cell priming assay based on repeated stimulations of CD8+ T cells with artificial antigen presenting cells (aAPCs) loaded with peptide/MHC complexes and anti-CD28 antibody.
In Vitro Priming of CD8+ T Cells
In order to perform in vitro stimulations by artificial antigen presenting cells loaded with peptide-MHC complex (pMHC) and anti-CD28 antibody, the inventors first isolated CD8+ T cells from fresh HLA-A*02 leukapheresis products via positive selection using CD8 microbeads (Miltenyi Biotec, Bergisch-Gladbach, Germany) of healthy donors obtained from the University clinics Mannheim, Germany, after informed consent.
PBMCs and isolated CD8+ lymphocytes were incubated in T-cell medium (TCM) until use consisting of RPMI-Glutamax (Invitrogen, Karlsruhe, Germany) supplemented with 10% heat inactivated human AB serum (PAN-Biotech, Aidenbach, Germany), 100 U/ml Penicillin/100 μg/ml Streptomycin (Cambrex, Cologne, Germany), 1 mM sodium pyruvate (CC Pro, Oberdorla, Germany), 20 μg/ml Gentamycin (Cambrex). 2.5 ng/ml IL-7 (PromoCell, Heidelberg, Germany) and 10 U/ml IL-2 (Novartis Pharma, Nümberg, Germany) were also added to the TCM at this step.
Generation of pMHC/anti-CD28 coated beads, T-cell stimulations and readout was performed in a highly defined in vitro system using four different pMHC molecules per stimulation condition and 8 different pMHC molecules per readout condition.
The purified co-stimulatory mouse IgG2a anti human CD28 Ab 9.3 (Jung et al., 1987) was chemically biotinylated using Sulfo-N-hydroxysuccinimidobiotin as recommended by the manufacturer (Perbio, Bonn, Germany). Beads used were 5.6 μm diameter streptavidin coated polystyrene particles (Bangs Laboratories, Illinois, USA).
pMHC used for positive and negative control stimulations were A*0201/MLA-001 (peptide […] (SEQ ID NO. 664) from modified Melan-A/MART-1) and A*0201/DDX5-001 ([…] from DDX5, SEQ ID NO. 665), respectively.
800.000 beads/200 μl were coated in 96-well plates in the presence of 4×12.5 ng different biotin-pMHC, washed and 600 ng biotin anti-CD28 were added subsequently in a volume of 200 μl. […]

Substance	Peptide exchange (MHC class I binding score, peptide exchange yield) [1]	Wells positive [%] [2]	donors [2]	wells [2]
2 (SLLEADPFL; listed as Homo sapiens) [compound 2]	“+++” (>50 = +++)	“+” (<20% = +)		
3 (SLASKLTTL; listed as Homo sapiens) [compound 3]	“++++” (>75% = ++++)	“+” (<20% = +)		
5 (HLTEVYPEL; listed as Homo sapiens) [compound 5]	“+++” (>50 = +++)	“+++” (50% - 69% = +++)		
7 (SLVGLLLYL; listed as Homo sapiens) [compound 7]	“++++” (>75% = ++++)	“++” (20% - 49% = ++)		
8 (FTLGNVVGMYL; listed as Homo sapiens) [compound 8]	“++++” (>75% = ++++)	“+” (<20% = +)		
11 (KIFEMLEGV; listed as Homo sapiens) [compound 11]	“+++” (>50 = +++)	“+” (<20% = +)		
17 (GLLPGDRLVSV; listed as Homo sapiens) [compound 17]	“+++” (>50 = +++)	“++” (20% - 49% = ++)		
19 (FMVDNEAIYDI; listed as Homo sapiens) [compound 19]	“++++” (>75% = ++++)	“++” (20% - 49% = ++)		
36 (YVLEDLEVTV; listed as Homo sapiens) [compound 36]	“++” (>20% = ++)	“+” (<20% = +)		
38 (FLLEDDIHVS; listed as Homo sapiens) [compound 38]	“+++” (>50 = +++)	“+” (<20% = +)		
40 (TLLVKVFSV; listed as Homo sapiens) [compound 40]	“+++” (>50 = +++)	“++” (20% - 49% = ++)		
48 (ALAELYEDEV; listed as Homo sapiens) [compound 48]	“+++” (>50 = +++)	“+” (<20% = +)		
49 (YLPAVFEEV; listed as Homo sapiens) [compound 49]	“+++” (>50 = +++)	“++” (20% - 49% = ++)		
56 (KLYEGIPVLL; listed as Homo sapiens) [compound 56]	“++++” (>75% = ++++)	“+” (<20% = +)		
60 (SLTIDGIYYV; listed as Homo sapiens) [compound 60]	“++++” (>75% = ++++)	“++++” (≥70% = ++++)		
61 (FLQGYQLHL; listed as Homo sapiens) [compound 61]	“++++” (>75% = ++++)	“++” (20% - 49% = ++)		

Substance	Peptide exchange (MHC class I binding score, peptide exchange yield) [1]	Wells positive [%] [2]	donors [2]	wells [2]
79 (SLFIGEKAVLL; listed as Homo sapiens) [compound 79]	“+++” (>50 = +++)	“+” (<20% = +)		
108 (ALFPGVALLLA; listed as Homo sapiens) [compound 108]	“++++” (>75% = ++++)	“++” (20% - 49% = ++)		
113 (GLLPTPLFGV; listed as Homo sapiens) [compound 113]	“+++” (>50 = +++)	“+” (<20% = +)		
118 (KLIDNNINV; listed as Homo sapiens) [compound 118]	“+++” (>50 = +++)	“+” (<20% = +)		
141 (YLDFSNNRL; listed as Homo sapiens) [compound 141]	“++” (>20% = ++)	“+” (<20% = +)		
143 (LLLDITPEI; listed as Homo sapiens) [compound 143]	“++++” (>75% = ++++)	“+” (<20% = +)		
150 (RLWEEGEELEL; listed as Homo sapiens) [compound 150]	“+++” (>50 = +++)	“+” (<20% = +)		
152 (ILFEDIFDV; listed as Homo sapiens) [compound 152]	“+++” (>50 = +++)	“++” (20% - 49% = ++)		
157 (SLNDEVPEV; listed as Homo sapiens) [compound 157]	“++” (>20% = ++)	“+++” (50% - 69% = +++)		
166 (YLNHLEPPV; listed as Homo sapiens) [compound 166]	“+++” (>50 = +++)	“++++” (≥70% = ++++)		
191 (LLQEGQALEYV; listed as Homo sapiens) [compound 191]	“++” (>20% = ++)	“+++” (50% - 69% = +++)		
648 (LLWGNAIFL; listed as Homo sapiens) [compound 648]			+++ (50% - 69% = +++)	++ (20% - 49% = ++)
652 (TLWYRAPEV; listed as Homo sapiens) [compound 652]			++++ (≥70% = ++++)	+++ (50% - 69% = +++)
659 (ILFPDIIARA; listed as Homo sapiens) [compound 659]			+++ (50% - 69% = +++)	+ (<20% = +)
662 (KIQEILTQV; listed as Homo sapiens) [compound 662]			+++ (50% - 69% = +++)	+ (<20% = +)
663 (KIQEMQHFL; listed as Homo sapiens) [compound 663]			+++ (50% - 69% = +++)	+ (<20% = +)
